Our source for the GI50 and TGI values is PubChem BioAssay (NCI).

Test systems include OVCAR-4 ovarian; HT29 colon; UACC-257 melanoma; NCI-H23 lung; CAKI-1 renal; SK-MEL-2 melanoma; HL-60(TB) leukemia; K-562 leukemia; RPMI-8226 leukemia; TK-10 renal.
Holding throughout (experiment): NCI-60 cell line screen, 48 h

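Exposure lasted 48 hours, with cells grown in 96-well plates and compounds tested at five concentrations. The concentration for 50% growth inhibition is given as GI50. TGI is the concentration that stops growth completely.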 A value given as a limit tells only on which side of the number the result lay.

Turning to `Cn1cc(-c2ccc3cc(-c4ccc(CC(=O)Nc5cc(C(C)(C)C)nn5C)cc4)cnc3c2)cn1`, the GI50 is 0.159 µM in the test on OVCAR-4 ovarian; 0.377 µM in the test with HT29 colon; 0.425 µM in the test on UACC-257 melanoma; 0.407 µM with NCI-H23 lung; 0.0519 µM with CAKI-1 renal; 0.138 µM in the test on SK-MEL-2 melanoma. Also, the GI50 in the test on HL-60(TB) leukemia is 0.314 µM; in the test on K-562 leukemia, 0.347 µM; in the test on RPMI-8226 leukemia, 0.254 µM; in the test on TK-10 renal, 0.492 µM. For the same compound, the TGI in the test on OVCAR-4 ovarian, in the test on HT29 colon, with UACC-257 melanoma, with NCI-H23 lung, in the test on CAKI-1 renal and in the test on K-562 leukemia was more than 100 µM in each case. The TGI with RPMI-8226 leukemia was 1.78 µM; in the test on TK-10 renal, more than 100 µM.
Turning to `C=C1C(=O)OC2C1C(OC(=O)/C(=C/C)COC(C)=O)CC1(CO1)C1C(OC(=O)/C(=C/C)CO)C=C(C)C21` (stereo unspecified), the TGI was determined as 7.53 µM in the test with OVCAR-4 ovarian; 7.48 µM with HT29 colon; 6.99 µM with UACC-257 melanoma; 3.97 µM with NCI-H23 lung; 2.13 µM with CAKI-1 renal; 3.63 µM in the test with SK-MEL-2 melanoma. In addition, the TGI came out at 2.34 µM with HL-60(TB) leukemia, 10 µM with K-562 leukemia, 6.56 µM in the test on RPMI-8226 leukemia and 6.05 µM in the test on TK-10 renal.
Regarding `COc1cc[c]([Hg][Cl])cc1`, the GI50 was 1.96 µM in the test with OVCAR-4 ovarian; 5.4 µM in the test with HT29 colon; 4.16 µM with UACC-257 melanoma; 3.03 µM with NCI-H23 lung; 6.55 µM with CAKI-1 renal; 4.39 µM with SK-MEL-2 melanoma. Moreover, the GI50 in the test on HL-60(TB) leukemia was 3.08 µM; in the test on K-562 leukemia, 1.84 µM; in the test on RPMI-8226 leukemia, 3.39 µM; with TK-10 renal, 17.5 µM. Also, the TGI in the test with OVCAR-4 ovarian amounted to 11.5 µM; in the test with HT29 colon it was 61 µM; in the test with UACC-257 melanoma, 14.5 µM; in the test on NCI-H23 lung, 22.4 µM; in the test with CAKI-1 renal, 23 µM; in the test on SK-MEL-2 melanoma it was 17.4 µM. Also, the TGI stood at 7.67 µM with HL-60(TB) leukemia, 6.73 µM with K-562 leukemia, 14.7 µM in the test with RPMI-8226 leukemia and 31.4 µM in the test on TK-10 renal.
Take `COc1ccc(C(=O)CC2(O)C(=O)Nc3c(Cl)ccc(Cl)c32)cc1` (stereo unspecified): the GI50 with OVCAR-4 ovarian is 11.9 µM; in the test on HT29 colon it was 0.491 µM; in the test with UACC-257 melanoma it was 15.5 µM; in the test on NCI-H23 lung, 4.61 µM; in the test on CAKI-1 renal, 1.75 µM; with SK-MEL-2 melanoma, 2.21 µM. Moreover, the GI50 was 0.384 µM in the test on HL-60(TB) leukemia, 0.403 µM in the test with K-562 leukemia, 2.64 µM with RPMI-8226 leukemia and 8.98 µM in the test on TK-10 renal. Moreover, the TGI was more than 100 µM in the test on OVCAR-4 ovarian; more than 57.9 µM in the test with HT29 colon; more than 100 µM in the test on UACC-257 melanoma; more than 60.6 µM in the test on NCI-H23 lung; more than 100 µM in the test on CAKI-1 renal; more than 44.1 µM in the test on SK-MEL-2 melanoma. Moreover, the TGI with HL-60(TB) leukemia was 3.51 µM; in the test with K-562 leukemia, more than 100 µM; in the test with RPMI-8226 leukemia it was 15.5 µM; in the test on TK-10 renal, more than 100 µM.
For the compound `O=C1CCCC1C(=O)Nc1ccc2ccccc2c1` (stereo unspecified), the TGI in the test on OVCAR-4 ovarian, in the test on HT29 colon, with UACC-257 melanoma, in the test with NCI-H23 lung, in the test on CAKI-1 renal and with SK-MEL-2 melanoma was more than 100 µM throughout. The TGI in the test on HL-60(TB) leukemia, with K-562 leukemia, with RPMI-8226 leukemia and in the test on TK-10 renal was more than 100 µM throughout.
Take `CCOC(=O)c1cnc2ccc(Cl)cc2c1NCCCN(C)C`: the GI50 with OVCAR-4 ovarian was 23.6 µM; in the test with HT29 colon, 14.1 µM; in the test on UACC-257 melanoma, 17.3 µM; in the test on NCI-H23 lung, 32.7 µM; in the test with CAKI-1 renal, 23.8 µM; in the test with SK-MEL-2 melanoma, 29.1 µM. The GI50 in the test on HL-60(TB) leukemia is 19.4 µM; in the test with K-562 leukemia it was 18.1 µM; in the test on RPMI-8226 leukemia it was 20.7 µM; in the test with TK-10 renal, 27.5 µM. Besides, the TGI with OVCAR-4 ovarian is more than 100 µM; with HT29 colon, 52.6 µM; in the test on UACC-257 melanoma, 34.9 µM; with NCI-H23 lung it was more than 100 µM; with CAKI-1 renal, 96.5 µM; in the test on SK-MEL-2 melanoma, 62.6 µM. Also, the TGI in the test on HL-60(TB) leukemia was 50.8 µM; in the test with K-562 leukemia, more than 100 µM; in the test on RPMI-8226 leukemia it was 54.9 µM; in the test on TK-10 renal, more than 100 µM.
With `C#Cc1cccc(NC(=O)Nc2ccccc2NC(=O)CCl)c1`, the GI50 in the test on OVCAR-4 ovarian is 16 µM; with HT29 colon it was 27.6 µM; in the test with UACC-257 melanoma, 26.7 µM; in the test on NCI-H23 lung it was 16.9 µM; in the test with CAKI-1 renal, 15.1 µM; with SK-MEL-2 melanoma, 22 µM. The GI50 in the test on HL-60(TB) leukemia is 25.2 µM; in the test with K-562 leukemia it was 22.8 µM; in the test with RPMI-8226 leukemia it was 15.2 µM; in the test on TK-10 renal, 25.5 µM. In addition, the TGI with OVCAR-4 ovarian was 41 µM; in the test on HT29 colon, more than 82.5 µM; in the test on UACC-257 melanoma it was more than 82.5 µM; with NCI-H23 lung, 48.5 µM; in the test with CAKI-1 renal, 33.8 µM; in the test on SK-MEL-2 melanoma, 63.9 µM. Also, the TGI in the test with HL-60(TB) leukemia, in the test with K-562 leukemia, with RPMI-8226 leukemia and in the test with TK-10 renal was more than 82.5 µM throughout.
In the case of `COC(=O)C1=C(O)C(O)=C(C(=O)OC)CC1`, the TGI in the test with OVCAR-4 ovarian, in the test on HT29 colon, in the test with UACC-257 melanoma, in the test on NCI-H23 lung, in the test on CAKI-1 renal and with SK-MEL-2 melanoma was more than 100 µM in each case. Also, the TGI in the test on HL-60(TB) leukemia, in the test with K-562 leukemia, with RPMI-8226 leukemia and with TK-10 renal was more than 100 µM each time.
Take `COc1cc([C@@H]2c3cc4c(cc3[C@H](OC3OC5COC(c6ccccc6)OC5C(O)C3O)[C@H]3COC(=O)[C@H]23)OCO4)cc(OC)c1OC` (stereo partly specified): the GI50 is 0.663 µM with OVCAR-4 ovarian; 0.356 µM in the test on HT29 colon; 1.07 µM in the test with UACC-257 melanoma; 0.418 µM with NCI-H23 lung; 0.378 µM with CAKI-1 renal; 0.978 µM in the test with SK-MEL-2 melanoma. For the same compound, the GI50 with HL-60(TB) leukemia was 0.342 µM; with K-562 leukemia it was 0.359 µM; in the test on RPMI-8226 leukemia, 0.263 µM; with TK-10 renal, 1.13 µM. For the same compound, the TGI was determined as 11.8 µM in the test on OVCAR-4 ovarian; 2.32 µM in the test with HT29 colon; 3.69 µM with UACC-257 melanoma; 14.5 µM in the test with NCI-H23 lung; 22.2 µM in the test with CAKI-1 renal; 5.64 µM in the test on SK-MEL-2 melanoma. In addition, the TGI in the test with HL-60(TB) leukemia is 1.46 µM; in the test on K-562 leukemia, more than 100 µM; with RPMI-8226 leukemia it was 1 µM; in the test with TK-10 renal, 5.51 µM.
As to `CC(=O)Oc1c(-c2ccccc2)[nH]c2cc([N+](=O)[O-])c(/C(Cl)=C/c3ccccc3)cc12`, the TGI with OVCAR-4 ovarian was determined as 39.3 µM; in the test on HT29 colon it was 11.1 µM; with UACC-257 melanoma it was 27.7 µM; in the test on NCI-H23 lung, 11.6 µM; with CAKI-1 renal, 69.2 µM; with SK-MEL-2 melanoma it was 30.8 µM. The TGI in the test with HL-60(TB) leukemia is 10.7 µM; in the test on K-562 leukemia, more than 100 µM; with RPMI-8226 leukemia, more than 100 µM; in the test with TK-10 renal it was 64.4 µM.
As for `C=C1C(=O)O[C@@H]2[C@@H]3O[C@@](C)(CC/C=C(\C)CCC[C@@H]2C)[C@H](O)C[C@@H]13`, the GI50 with OVCAR-4 ovarian was 2.63 µM; in the test with HT29 colon, 2.41 µM; in the test on UACC-257 melanoma, 1.29 µM; in the test on NCI-H23 lung, 3.71 µM; with CAKI-1 renal, 1.73 µM; with SK-MEL-2 melanoma, 2.41 µM. In addition, the GI50 is 3.1 µM in the test with K-562 leukemia and 1.89 µM in the test with TK-10 renal. Besides, the TGI in the test with OVCAR-4 ovarian was 11.7 µM; in the test with HT29 colon, 6.71 µM; in the test with UACC-257 melanoma it was 4.27 µM; in the test with NCI-H23 lung, 16.5 µM; in the test on CAKI-1 renal, 4.5 µM; in the test on SK-MEL-2 melanoma, 4.85 µM. Besides, the TGI was 8.1 µM in the test with HL-60(TB) leukemia, 9.58 µM in the test on K-562 leukemia, more than 100 µM with RPMI-8226 leukemia and 3.46 µM with TK-10 renal.
